Laboratory results taken from patent publication US10774083B2, “Heterocyclic amide compound” (TAKEDA PHARMACEUTICAL COMPANY LIMITED, priority 2016, dated 2020).

Assays:
[1] = system: human ovarian cancer cells A2780; assay: proliferation inhibitory activity against human ovarian cancer cell A2780 (CellTiter-Glo); format: cell-based; conditions: A2780, 72 h, 1 μM test compound, 3 days of culture, read-out: proliferation inhibitory rate (%) of A2780 cells
Procedure, shortened: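 A2780 cells in RPMI-1640 with 10% FBS, compound added the day after seeding and cultured 3 days. Viability by CellTiter-Glo luminescence. Inhibition (%) calculated with cell-free wells as 100% inhibition.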

[2] = target: T1, human PRS protein (His-Avi-hEPRS (998-1512)) (Homo sapiens, UniProt P07814); assay: PRS inhibitory activity ([32P]pyrophosphate exchange enzyme assay); format: biochemical; conditions: 300 nM test compound; read-out: inhibitory rate (%) of PRS
T1 construct: to construct His-Avi-hEPRS (998-1512) expression plasmid; His tag (N); Avi tag (N); TEV cleavage site (ENLYFQG, then S; inferred from the forward primer hEPRS-TEV-NheF) (N); made in house; host or cells: E. coli BL21(DE3)
T1 sequence (P07814 998-1512 limits assumed): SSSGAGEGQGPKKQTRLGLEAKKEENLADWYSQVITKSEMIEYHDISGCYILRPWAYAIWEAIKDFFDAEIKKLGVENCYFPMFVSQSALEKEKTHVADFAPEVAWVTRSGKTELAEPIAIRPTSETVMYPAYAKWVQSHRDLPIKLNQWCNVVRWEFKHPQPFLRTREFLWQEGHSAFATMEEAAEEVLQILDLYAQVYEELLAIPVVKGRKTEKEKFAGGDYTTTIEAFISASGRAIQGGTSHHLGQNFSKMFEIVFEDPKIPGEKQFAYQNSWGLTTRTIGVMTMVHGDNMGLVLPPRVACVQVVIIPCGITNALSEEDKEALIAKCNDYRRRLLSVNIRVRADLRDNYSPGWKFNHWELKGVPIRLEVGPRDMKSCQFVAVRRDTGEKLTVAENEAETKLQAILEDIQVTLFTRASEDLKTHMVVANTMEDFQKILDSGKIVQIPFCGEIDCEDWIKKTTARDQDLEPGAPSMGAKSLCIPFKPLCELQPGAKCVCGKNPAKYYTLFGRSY
Procedure, shortened: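 Compound was pre-incubated 60 min with 40 nM His-Avi-hEPRS (998-1512) (stock, E. coli-expressed) in Tris pH 7.5/KCl/DTT/Tween/MgCl2. Reaction began with substrate mix containing 300 μM ATP, 160 μM L-proline, 400 μM [32P]pyrophosphate (stock levels) and ran 30 min at room temperature. Charcoal-bound radioactivity was counted; inhibition was relative to no-reaction control.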

For `Cc1cc(N2CC[C@@](C#N)(C3CC3)C2=O)cc(C(=O)NCc2cc(F)cc(-c3cnn(C)c3)c2)n1` [Example 159, 4-((3S)-3-cyano-3-cyclopropyl-2-oxopyrrolidin-1-yl)-N-(3-fluoro-5-(1-methyl-1H-pyrazol-4-yl)benzyl)-6-methylpyridine-2-carboxamide], the inhibition at 1 µM [1] was 96% and the inhibition at 0.3 µM [2] was 101%.
